One may read the Ki as a measure of affinity in units of concentration, obtained from inhibition or displacement. The IC50 is the concentration that inhibits the measured activity by half. Broadly, the EC50 is the concentration needed to bring the measured effect to its halfway point.

The structures appear in SMILES notation. In brackets after ≈: the same amount, converted by molar mass.

This passage reports Ki, IC50 and EC50 results from ChEMBL document CHEMBL6096673, “In Pursuit of Lead Innovation: Pharmaceutically Important and Distinct Amide-Free Succinate Dehydrogenase Inhibitors” (J Med Chem, 2025).

Test [1] is described as follows: Binding affinity to carboxylesterase (unknown origin) assessed as inhibition constant by fluorescence analysis. On the set-up: species or system Homo sapiens.
Test [2] deals with Rhizoctonia solani. The test is described as follows: Antifungal activity against Rhizoctonia solani. Format: functional, organism-based.
For test [3], the target named is T1, Liver carboxylesterase (Sus scrofa, UniProt Q29550).
T1 sequence (Q29550 whole entry): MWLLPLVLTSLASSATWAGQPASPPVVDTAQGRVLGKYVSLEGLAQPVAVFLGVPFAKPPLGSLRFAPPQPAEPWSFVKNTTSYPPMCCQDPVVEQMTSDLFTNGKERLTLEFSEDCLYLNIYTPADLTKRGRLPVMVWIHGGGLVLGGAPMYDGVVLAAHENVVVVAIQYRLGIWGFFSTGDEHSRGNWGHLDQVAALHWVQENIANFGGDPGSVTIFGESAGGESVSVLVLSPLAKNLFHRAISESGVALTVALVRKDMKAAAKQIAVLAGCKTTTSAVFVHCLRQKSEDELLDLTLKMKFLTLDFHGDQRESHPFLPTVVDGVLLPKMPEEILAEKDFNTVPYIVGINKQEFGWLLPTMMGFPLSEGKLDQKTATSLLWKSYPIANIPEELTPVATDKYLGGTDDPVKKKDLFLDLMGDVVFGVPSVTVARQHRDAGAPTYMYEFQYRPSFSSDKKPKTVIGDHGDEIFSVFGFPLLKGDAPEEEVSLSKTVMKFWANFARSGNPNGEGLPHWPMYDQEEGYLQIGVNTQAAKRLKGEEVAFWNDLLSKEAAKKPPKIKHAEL
The test can be described thus: Inhibition of porcine liver carboxylesterase.

Test [4] has as its system Sclerotinia sclerotiorum. The test is described as follows: Antifungal activity against Sclerotinia sclerotiorum assessed as inhibition of fungal growth. The test is classed as functional, organism-based.
In test [5] the test system is Botrytis cinerea. The test is described as follows: Antifungal activity against Botrytis cinerea. The test is classed as functional, organism-based.
Test [6] deals with Alternaria solani. The test is described as follows: Antifungal activity against Alternaria solani. The test is classed as functional, organism-based.
Test [7] relates to Fusarium graminearum. The test can be described thus: Antifungal activity against Gibberella zeae. The test is classed as functional, organism-based.
Test [8] deals with Sclerotinia sclerotiorum. The test is described as follows: Antifungal activity against Sclerotinia sclerotiorum. The test is classed as functional, organism-based.
Test [9] has as its system Plasmodium falciparum. The test can be described thus: Antiplasmodial activity against Plasmodium falciparum. Format: functional, organism-based.
Test [10] relates to Trichophyton mentagrophytes. The test can be described thus: Antifungal activity against Trichophyton mentagrophytes. Format: functional, organism-based.

`O=C(CC(=O)C(F)(F)F)c1cccs1`: the Ki in test [1] turned out to be 610 nM. Turning to `Cn1cc(/C=N\Oc2cccc(F)c2)c(C(F)F)n1`, in test [2], it took 1.35 µg/mL (≈ 5.01 µM) to reach half-maximal inhibition (IC50). As to `COc1nc(O)c(C(=O)[C@H](C)C[C@H](C)[C@@H](Cl)CCl)c(O)c1OC`, 2000 nM corresponded to half-maximal inhibition in [3] (IC50).

In test [2], `Cn1cc(/C=N/Oc2cccc(I)c2)c(C(F)F)n1` gave an IC50 of 1.57 µg/mL (≈ 4.16 µM).

`COc1nc(O)c(C(=O)CC[C@H](C)[C@@H](Cl)CCl)c(O)c1OC` returned an IC50 in test [3] of 315 nM.

`COc1nc(O)c(C(=O)[C@@H](C)C[C@@H](C)[C@@H](Cl)CCl)c(O)c1OC` displayed an IC50 in [3] of 7 nM. The same measure, in the same setting: the same measure for `C=CCC/C=C\C=C/CCCCCC[C@H]1CC[C@H]([C@@H]2CC[C@@H](CC(=O)OC)OO2)O1`: below 1000 nM. `Cn1cc(/C=N\Oc2cccc(Br)c2)c(C(F)F)n1` came in with a 50% inhibitory concentration (IC50) in [2] of 0.21 µg/mL (≈ 0.636 µM).

On to `COc1cc(-c2ccc(Br)o2)cc(-c2ccc(Br)cc2)n1`, for which the IC50 in [4] was 1.15 µg/mL (≈ 2.81 µM). The compound `Cn1cc(/C=N/Oc2cccc(Br)c2)c(C(F)F)n1` had a half-maximal inhibitory concentration (IC50) in [2] of 4.53 µg/mL (≈ 13.7 µM). For the compound `COc1nc(O)c(C(=O)[C@@H](C)C[C@H](C)[C@H](Cl)CCl)c(O)c1OC`, the half-inhibitory concentration (IC50) in [3] is 22.4 nM.

Take `Cn1cc(/C=N/Oc2cccc(F)c2)c(C(F)F)n1`: the midpoint of inhibition in [2], the IC50, lay at 2.94 µg/mL (≈ 10.9 µM). As to `Cn1cc(/C=N\Oc2cccc(I)c2)c(C(F)F)n1`, the 50% inhibitory concentration (IC50) in test [2] turned out to be 1.43 µg/mL (≈ 3.79 µM).

Turning to `Fc1ccc(C2C=C(c3ccc4c(c3)OCO4)NC(=S)N2)cc1` (configuration not stated), the EC50 was determined as 0.44 µg/mL (≈ 1.34 µM) in test [5], 0.07 µg/mL (≈ 0.213 µM) in test [6] and 0.57 µg/mL (≈ 1.74 µM) in test [7].

For `Cc1ccc(-c2cc(-c3ccc(Cl)cc3)nc(-n3cccn3)n2)o1`, in [8], the EC50 came to 0.08 µg/mL (≈ 0.238 µM). `CCOC(=O)C(C#N)C(CC(=O)c1ccc(Br)cc1)c1ccco1` (configuration not stated): the concentration giving a half-maximal response (EC50) in [8] is 3.3 µg/mL (≈ 8.46 µM). In [3], `CC[C@@H](C)C[C@H](C)C(=O)c1c(O)nc(OC)c(OC)c1O` displayed an IC50 of 2100 nM. Compound `Cc1ccc(-c2cc(-c3ccco3)nc(C)n2)cc1` gave an EC50 in test [8] of 0.07 µg/mL (≈ 0.28 µM).

`COc1nc(O)c(C(=O)[C@@H](C)C[C@H](C)[C@H](C)Cl)c(O)c1OC` returned an IC50 in test [3] of 110 nM. `COC(=O)C1=C(C)OC(N)=C(C#N)C1c1ccc(Cl)s1` (configuration not stated): inhibition in test [2] was half-maximal at 1.06 µg/mL (≈ 3.41 µM) (IC50). As to `C=CCC/C=C\C=C/CCCCCCC1CC[C@@H]([C@@H]2CC[C@@H](CC(=O)OC)OO2)O1` (single isomer, unassigned), the IC50 in test [3] is below 1000 nM. On to `COc1[nH]c(=O)c(C(=O)[C@@H](C)C[C@H](C)[C@@H](Cl)CCl)c(O)c1OC` [ATPENIN A5], for which, in test [3], the IC50 was 14 nM. On to `O=C(NCCc1ncc(C(F)(F)F)cc1Cl)c1ccccc1C(F)(F)F` [FLUOPYRAM], for which, in test [3], the IC50 is below 1000 nM. As for `Cc1cc(O)c2c(c1)O[C@@]1(C)CC[C@H]3C(C)(C)CCC[C@]34CO[C@@H]2[C@H]41` [SICCANIN], the IC50 was found to be 8400 nM in [9] and 0.3 µg/mL (≈ 0.876 µM) in test [10].
